Data from patent publication US20220064214A1, “NOVEL PEPTIDES AND USES THEREOF” (CENNA BIOSCIENCES INC., priority 2019, published 2022).
Like-named read-outs stand apart in the source and are kept apart here. Square brackets hold non-standard residues; d marks the D form. Peptide text beside a SMILES is read from it.

Legend:
Aß = experiment: Efficacy in reducing Aß in APP transgenic mice (analysis in CSF and brain); type: in vivo; settings: Tg mice over-expressing Aß
Description: Critical to the development of any therapeutic for diseases like AD is the requirement that it can be delivered to the brain. Delivery to brain and efficacy of P8 and 8M2D in reducing Aß was analyzed in the transgenic mice described in Section 6.3 above.
The maximum efficacious dose of 8M2D in Tg mice over-expressing Aß is at just over 50 mg/kg. This gives a 65% reduction in Aß 42. […] Experiments are performed to establish the minimum efficacious dose in Tg mice.

[1] = PK analysis of 8M2D in transgenic mice (APPSWE), plasma; settings: mouse, in vivo, sc
Source text: Pharmacokinetics (PK) of 8M2D was further analyzed with various doses at days 1 and 13 in transgenic mice (APPSWE (B6; SJL 2576 Kha; Taconic)). See Hsiao et al., Correlative memory deficits, Aβ elevation, and amyloid plaques in transgenic mice. Science 274:99-102 (1996); and Haugabook et al., Reduction of Abeta accumulation in the Tg2576 animal model of Alzheimer's disease after oral administration of the phosphatidyl-inositol kinase inhibitor wortmannin. Faseb J 15:16-18 (2001).

Question: For `CC(=O)N[C@H](CC(=O)O)C(=O)N[C@@H](CCC(=O)O)C(=O)N[C@@H](CCC(=O)O)C(=O)N[C@@H](CCC(=O)O)C(=O)N[C@@H](CC(=O)O)C(=O)N[C@@H](CCC(=O)O)C(=O)N[C@@H](CCC(=O)O)C(=O)N[C@@H](CC(C)C)C(N)=O` [8M2D, Ac-dEEEDEEL-NH2] (Ac-[dD]EEEDEEL-NH2), which “efficacy on increasing the dose 5× (in words)” value (Aß; SC) is on record?
Answer: Its value is “only a marginal increase in efficacy”.

Question: And the maximum efficacious dose (Aß; SC dosing)?
Answer: Its maximum efficacious dose is “over 50 mg/kg”.

Question: And the “reduction in Aß 42” value (Aß; SC, at the maximum efficacious dose (just over 50 mg/kg))?
Answer: Its value is 65%.

Question: And the AUC(0-t) ([1]; 10 mg/kg, Day 1, 10 mg/kg, read-out: AUClast)?
Answer: The AUC(0-t) was 12800 ng·h/mL.

Question: What about the CL/F ([1]; 10 mg/kg, Day 1, 10 mg/kg, read-out: Cl/F) of the same molecule?
Answer: Its CL/F is 13 mL/min/kg.

Question: What about the Cmax ([1]; 10 mg/kg, Day 1, 10 mg/kg, read-out: Cmax) of the same molecule?
Answer: The Cmax was 14.4 µg/mL.

Question: And the Tmax ([1]; 10 mg/kg, Day 1, 10 mg/kg, read-out: Tmax)?
Answer: The Tmax was 0.17 h.

Question: And the Vd/F ([1]; 10 mg/kg, Day 1, 10 mg/kg, read-out: Vz/F)?
Answer: The Vd/F was 8.84 L/kg.

Question: What about the half-life ([1]; 10 mg/kg, Day 1, 10 mg/kg, read-out: t1/2 (converted)) of the same molecule?
Answer: The half-life was 7.9 h.

Question: And the AUC(0-t) ([1]; 10 mg/kg, Day 13, 10 mg/kg, read-out: AUClast)?
Answer: Its AUC(0-t) is 11600 ng·h/mL.

Question: What about the CL/F ([1]; 10 mg/kg, Day 13, 10 mg/kg, read-out: Cl/F) of the same molecule?
Answer: The CL/F was 14.1 mL/min/kg.

Question: And the Cmax ([1]; 10 mg/kg, Day 13, 10 mg/kg, read-out: Cmax)?
Answer: Its Cmax is 12.4 µg/mL.

Question: What about the Tmax ([1]; 10 mg/kg, Day 13, 10 mg/kg, read-out: Tmax) of the same molecule?
Answer: The Tmax was 0.17 h.

Question: And the Vd/F ([1]; 10 mg/kg, Day 13, 10 mg/kg, read-out: Vz/F)?
Answer: Its Vd/F is 10.2 L/kg.

Question: And the half-life ([1]; 10 mg/kg, Day 13, 10 mg/kg, read-out: t1/2 (converted))?
Answer: The half-life was 8.4 h.

Question: And the AUC(0-t) ([1]; 50 mg/kg, Day 1, 50 mg/kg, read-out: AUClast)?
Answer: Its AUC(0-t) is 70500 ng·h/mL.

Question: And the CL/F ([1]; 50 mg/kg, Day 1, 50 mg/kg, read-out: Cl/F)?
Answer: The CL/F was 11.8 mL/min/kg.

Question: And the Cmax ([1]; 50 mg/kg, Day 1, 50 mg/kg, read-out: Cmax)?
Answer: Its Cmax is 111 µg/mL.

Question: And the Tmax ([1]; 50 mg/kg, Day 1, 50 mg/kg, read-out: Tmax)?
Answer: The Tmax was 0.17 h.

Question: And the Vd/F ([1]; 50 mg/kg, Day 1, 50 mg/kg, read-out: Vz/F)?
Answer: Its Vd/F is 7.59 L/kg.

Question: And the half-life ([1]; 50 mg/kg, Day 1, 50 mg/kg, read-out: t1/2 (converted))?
Answer: The half-life was 7.4 h.

Question: And the AUC(0-t) ([1]; 50 mg/kg, Day 13, 50 mg/kg, read-out: AUClast)?
Answer: The AUC(0-t) was 49700 ng·h/mL.

Question: What about the CL/F ([1]; 50 mg/kg, Day 13, 50 mg/kg, read-out: Cl/F) of the same molecule?
Answer: The CL/F was 12.9 mL/min/kg.

Question: And the Cmax ([1]; 50 mg/kg, Day 13, 50 mg/kg, read-out: Cmax)?
Answer: Its Cmax is 73 µg/mL.

Question: What about the Tmax ([1]; 50 mg/kg, Day 13, 50 mg/kg, read-out: Tmax) of the same molecule?
Answer: The Tmax was 0.17 h.

Question: What about the Vd/F ([1]; 50 mg/kg, Day 13, 50 mg/kg, read-out: Vz/F) of the same molecule?
Answer: The Vd/F was 148 L/kg.

Question: What about the half-life ([1]; 50 mg/kg, Day 13, 50 mg/kg, read-out: t1/2 (converted)) of the same molecule?
Answer: Its half-life is 130 h.

Question: And the AUC(0-t) ([1]; 250 mg/kg, Day 1, 250 mg/kg, read-out: AUClast)?
Answer: The AUC(0-t) was 176000 ng·h/mL.

Question: What about the CL/F ([1]; 250 mg/kg, Day 1, 250 mg/kg, read-out: Cl/F) of the same molecule?
Answer: Its CL/F is 23.6 mL/min/kg.

Question: And the Cmax ([1]; 250 mg/kg, Day 1, 250 mg/kg, read-out: Cmax)?
Answer: The Cmax was 207 µg/mL.

Question: What about the Tmax ([1]; 250 mg/kg, Day 1, 250 mg/kg, read-out: Tmax) of the same molecule?
Answer: The Tmax was 0.17 h.

Question: What about the Vd/F ([1]; 250 mg/kg, Day 1, 250 mg/kg, read-out: Vz/F) of the same molecule?
Answer: Its Vd/F is 5.84 L/kg.

Question: What about the half-life ([1]; 250 mg/kg, Day 1, 250 mg/kg, read-out: t1/2 (converted)) of the same molecule?
Answer: The half-life was 2.9 h.

Question: And the AUC(0-t) ([1]; 250 mg/kg, Day 1, Mean over the 10, 50 and 250 mg/kg doses (N 3), read-out: AUClast, Mean)?
Answer: Its AUC(0-t) is 86400 ng·h/mL.

Question: What about the CL/F ([1]; 250 mg/kg, Day 1, Mean over the 10, 50 and 250 mg/kg doses (N 3), read-out: Cl/F, Mean) of the same molecule?
Answer: Its CL/F is 16.1 mL/min/kg.

Question: And the Cmax ([1]; 250 mg/kg, Day 1, Mean over the 10, 50 and 250 mg/kg doses (N 3), read-out: Cmax, Mean)?
Answer: The Cmax was 111 µg/mL.

Question: What about the Tmax ([1]; 250 mg/kg, Day 1, Mean over the 10, 50 and 250 mg/kg doses (N 3), read-out: Tmax, Mean) of the same molecule?
Answer: The Tmax was 0.167 h.

Question: What about the Vd/F ([1]; 250 mg/kg, Day 1, Mean over the 10, 50 and 250 mg/kg doses (N 3), read-out: Vz/F, Mean) of the same molecule?
Answer: Its Vd/F is 7.42 L/kg.

Question: And the half-life ([1]; 250 mg/kg, Day 1, Mean over the 10, 50 and 250 mg/kg doses (N 3), read-out: t1/2, Mean (converted))?
Answer: The half-life was 6.06 h.

Question: What about the AUC(0-t) ([1]; 250 mg/kg, Day 13, 250 mg/kg, read-out: AUClast) of the same molecule?
Answer: The AUC(0-t) was 290000 ng·h/mL.

Question: What about the CL/F ([1]; 250 mg/kg, Day 13, 250 mg/kg, read-out: Cl/F) of the same molecule?
Answer: Its CL/F is 13.5 mL/min/kg.

Question: What about the Cmax ([1]; 250 mg/kg, Day 13, 250 mg/kg, read-out: Cmax) of the same molecule?
Answer: The Cmax was 278 µg/mL.

Question: What about the Tmax ([1]; 250 mg/kg, Day 13, 250 mg/kg, read-out: Tmax) of the same molecule?
Answer: The Tmax was 0.17 h.

Question: What about the Vd/F ([1]; 250 mg/kg, Day 13, 250 mg/kg, read-out: Vz/F) of the same molecule?
Answer: The Vd/F was 33.4 L/kg.

Question: And the half-life ([1]; 250 mg/kg, Day 13, 250 mg/kg, read-out: t1/2 (converted))?
Answer: The half-life was 29 h.

Question: What about the AUC(0-t) ([1]; 250 mg/kg, Day 13, Mean over the 10, 50 and 250 mg/kg doses (N 3), read-out: AUClast, Mean) of the same molecule?
Answer: Its AUC(0-t) is 117000 ng·h/mL.

Question: And the CL/F ([1]; 250 mg/kg, Day 13, Mean over the 10, 50 and 250 mg/kg doses (N 3), read-out: Cl/F, Mean)?
Answer: The CL/F was 13.5 mL/min/kg.

Question: What about the Cmax ([1]; 250 mg/kg, Day 13, Mean over the 10, 50 and 250 mg/kg doses (N 3), read-out: Cmax, Mean) of the same molecule?
Answer: Its Cmax is 121 µg/mL.

Question: And the Tmax ([1]; 250 mg/kg, Day 13, Mean over the 10, 50 and 250 mg/kg doses (N 3), read-out: Tmax, Mean)?
Answer: The Tmax was 0.167 h.

Question: And the Vd/F ([1]; 250 mg/kg, Day 13, Mean over the 10, 50 and 250 mg/kg doses (N 3), read-out: Vz/F, Mean)?
Answer: The Vd/F was 63.8 L/kg.

Question: What about the half-life ([1]; 250 mg/kg, Day 13, Mean over the 10, 50 and 250 mg/kg doses (N 3), read-out: t1/2, Mean (converted)) of the same molecule?
Answer: The half-life was 56.5 h.
